Results as given in article PMC8297715 (ACS chemical biology, 2020).

Legend:
[1] = target: T1, human nSMase2 (Homo sapiens, UniProt Q9NY59); experiment: Amplex Red neutral sphingomyelinase enzyme activity assay; type: biochemical
T1 sequence (Q9NY59 1-655): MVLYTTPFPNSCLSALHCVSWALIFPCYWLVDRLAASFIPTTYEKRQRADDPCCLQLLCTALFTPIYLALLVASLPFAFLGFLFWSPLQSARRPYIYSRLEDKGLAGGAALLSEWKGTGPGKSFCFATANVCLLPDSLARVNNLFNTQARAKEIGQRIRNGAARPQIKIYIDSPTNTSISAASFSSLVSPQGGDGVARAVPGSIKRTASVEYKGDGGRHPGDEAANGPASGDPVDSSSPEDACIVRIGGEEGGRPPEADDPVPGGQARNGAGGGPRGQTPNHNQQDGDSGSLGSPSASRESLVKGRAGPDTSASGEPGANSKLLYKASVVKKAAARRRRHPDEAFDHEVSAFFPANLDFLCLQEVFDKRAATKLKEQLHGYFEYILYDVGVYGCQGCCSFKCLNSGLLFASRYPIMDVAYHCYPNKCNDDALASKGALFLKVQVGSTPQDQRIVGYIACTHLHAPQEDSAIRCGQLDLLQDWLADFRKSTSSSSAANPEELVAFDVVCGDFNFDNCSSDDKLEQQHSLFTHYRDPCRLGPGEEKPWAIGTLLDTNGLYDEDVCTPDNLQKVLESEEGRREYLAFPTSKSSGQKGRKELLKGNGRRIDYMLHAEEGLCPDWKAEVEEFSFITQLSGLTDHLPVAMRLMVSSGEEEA

[2] = target: T2, human AChE (Homo sapiens, UniProt P22303); details: cited from earlier work
[3] = system: HEK293T Tau RD P301S FRET biosensor (tau biosensor); details: previously published; cited from earlier work
[4] = target: T2, human AChE; experiment: Amplex Red acetylcholinesterase; type: biochemical; details: read-out: AChE inhibition IC50; dose-response; human AChE (Sigma)
[5] = system: HEK293T Tau RD P301S FRET biosensor (tau biosensor); experiment: EV-mediated transfer; type: cell-based; details: 20 μM

T2 sequence (P22303 32-614): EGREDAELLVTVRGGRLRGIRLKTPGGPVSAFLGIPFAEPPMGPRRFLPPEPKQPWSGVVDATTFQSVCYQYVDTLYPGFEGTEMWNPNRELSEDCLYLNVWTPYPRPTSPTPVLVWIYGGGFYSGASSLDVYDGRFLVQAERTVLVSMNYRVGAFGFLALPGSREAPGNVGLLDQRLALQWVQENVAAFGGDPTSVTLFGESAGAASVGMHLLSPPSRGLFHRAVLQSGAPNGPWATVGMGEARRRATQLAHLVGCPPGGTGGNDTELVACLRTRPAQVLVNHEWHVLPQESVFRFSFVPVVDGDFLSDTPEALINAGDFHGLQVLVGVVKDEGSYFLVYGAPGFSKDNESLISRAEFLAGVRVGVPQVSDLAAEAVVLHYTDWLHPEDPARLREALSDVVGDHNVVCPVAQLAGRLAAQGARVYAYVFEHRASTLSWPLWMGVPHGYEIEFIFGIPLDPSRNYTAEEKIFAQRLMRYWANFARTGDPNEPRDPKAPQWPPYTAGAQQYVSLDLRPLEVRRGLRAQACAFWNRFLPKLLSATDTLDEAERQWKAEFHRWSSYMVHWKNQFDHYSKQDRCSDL

In the case of `CN1CC[C@]2(C)c3cc(OC(=O)Nc4ccccc4)ccc3N(C)[C@H]12` [Posiphen], the IC50 [1] is listed as over 50 µM and the “AChE inhibitor activity” value ([2]; reported) is listed as “weak AChE inhibitor”.
For `O=c1[nH]c(=S)[nH]c(-c2ccccc2)c1Cc1c(O)ccc2ccccc12` [cambinol], the “AChE activity” value ([2]; previously published) is given as “no AChE activity” and the “tau seed transfer in the EMT assay” value [3] is given as “shows inhibition of tau seed transfer”.
In the case of `CN1c2ccc(OC(=O)Nc3ccccc3)cc2[C@]2(C)CCO[C@H]12` [compound 1, (−)-phensvenine], the IC50 [4] is reported as 0.5 µM.
Work on `CN1CC[C@@]2(C)c3cc(OC(=O)Nc4ccccc4)ccc3N(C)[C@@H]12` [phenserine] yielded an IC50 [1] of over 50 µM.
With `CCN(C)C(=O)Oc1cccc([C@H](C)N(C)C)c1` [rivastigmine] the “nSMase2 activity” value [1] was “no nSMase2 activity” and the “EV-mediated tau seed transfer, EMT assay” value [5] was “partially suppress”.
